This passage reports IC50 results from PubChem BioAssay AID1431 (PCMD, 2008).

The structures appear in SMILES notation. Activity calls are given as the source filed them. How the calls were made is not given here.

Kallikrein-5 (Homo sapiens), sequence (Q9Y337 67-293 limits assumed): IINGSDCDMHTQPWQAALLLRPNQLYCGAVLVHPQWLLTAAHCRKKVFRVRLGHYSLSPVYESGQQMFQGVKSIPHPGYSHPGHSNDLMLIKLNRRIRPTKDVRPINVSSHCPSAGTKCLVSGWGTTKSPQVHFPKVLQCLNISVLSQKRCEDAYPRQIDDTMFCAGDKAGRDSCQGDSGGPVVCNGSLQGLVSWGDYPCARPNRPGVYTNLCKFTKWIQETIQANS

This test concerns the target Kallikrein-5 (Homo sapiens) (UniProt Q9Y337). The experiment in a line: kallikrein 5 (hK5) inhibition IC50 – biochemical, 1536-well, dose response (AID 1431). The note with it: recombinant KLK5 enzyme activity, fluorogenic substrate.
Turning to `Cc1cc(C)n(CC2CC(=O)N(c3ccc(Cl)c(Cl)c3)C2=O)n1` (stereo unspecified), the IC50 is > 50 µM (inactive).
To `O=C1c2ccccc2C(=O)N1/N=C/c1ccc(O)c(O)c1O` belongs > 50 µM (inactive); to `O=C(Nc1ccccc1)c1cccc(N2C(=O)CCC2=O)c1`, > 50 µM (inactive).
`CC(=O)c1ccc(N2C(=O)C3C(C2=O)C(C(=O)c2ccc(Cl)cc2)N2CCCC32)cc1` (stereo unspecified): the IC50 is > 50 µM (inactive).
For the compound `CC(C)n1c(=O)c(C=Nc2ccc(Br)cc2)c(O)n(Cc2ccco2)c1=O`, the IC50 is > 50 µM (inactive).
For `O=C1C(C=NCCCN2CCOCC2)=C(O)c2ccccc21`, the IC50 was > 50 µM (inactive).
In the case of `CC1=C(C(=O)N2CCCCC2)C(c2cccs2)C2=C(CCCC2=O)N1` (stereo unspecified), the IC50 was > 50 µM (inactive).
For `CCC(=O)N1CCN(CCN=CC2=C(O)CC(C)(C)CC2=O)CC1`, the IC50 is > 50 µM (inactive).
`COc1cccc(N2CCN(C3CC(=O)N(c4ccc(F)c(Cl)c4)C3=O)CC2)c1` (stereo unspecified): the IC50 is > 50 µM (inactive).
As for `Cc1cccc(NC2SC(=O)N(c3ccccc3)C2=O)c1` (stereo unspecified), the IC50 was > 50 µM (inactive).
Take `Cc1ccccc1NC(=O)Cn1c(O)c(N=NC(=O)c2ccccc2O)c2ccccc21`: the IC50 was > 50 µM (inactive).
As for `O=C1CC(Sc2ccc(Cl)cc2)C(=O)N1c1ccc2c(c1)OCCO2` (stereo unspecified), the IC50 is > 50 µM (inactive).
With `COc1ccc(C2C(C(=O)Nc3ccccc3OC)=C(C)Nc3ncnn32)cc1` (stereo unspecified), the IC50 was > 50 µM (inactive).
For `CCOc1cc(/C=N/Nc2nc(Nc3ccccc3)nc(N3CCCCC3)n2)ccc1OCC(=O)O` the value was > 50 µM (inactive); for `COc1ccc2c(c1)C(c1ccc(N3CCOCC3)cc1)=NNC(c1cccnc1)=N2`, > 50 µM (inactive); for `COc1ccc(C2C(C(C)=O)=C(O)C(=O)N2c2nccs2)cc1OC` (stereo unspecified), 26 µM.
`Cc1cc(N2C(=O)CC(Cc3ccc(Cl)cc3)C2=O)no1` (stereo unspecified): the IC50 was > 50 µM (inactive).
With `O=C(O)c1cc(/C=N\O)ccc1OCc1ccccc1`, the IC50 was > 50 µM (inactive).
Turning to `O=C1CC(c2ccccc2)CC(O)=C1C=NCCN1CCN(C(=S)Nc2cccc(Cl)c2)CC1` (stereo unspecified), the IC50 was > 50 µM (inactive).
For `CCOC(=O)c1ccc(N=C(c2ccccc2)c2c(O)n(C)c(=O)n(C)c2=O)cc1` the value was > 50 µM (inactive); for `COc1ccc(CN2C(=O)c3cccnc3C2Nc2cc(Cl)ccc2OC)cc1` (stereo unspecified), 7.23 µM.
To `N#C/C(=N\O)c1nc2ccccc2s1` belongs > 50 µM (inactive).
Take `CC1CC(C)(C)n2c(O)c(N=NC(N)=S)c3cccc1c32` (stereo unspecified): the IC50 is > 50 µM (inactive).
To `O=C1CC(Nc2ccccc2)C(=O)N1c1ccc(N2CCOCC2)cc1` (stereo unspecified) belongs > 50 µM (inactive); to `O=C(N/N=C\c1cccc([N+](=O)[O-])c1O)C1COc2ccccc2O1` (stereo unspecified), > 50 µM (inactive).
On to `Cc1cc2c(C)nc(N/N=C/c3ccc([N+](=O)[O-])cc3)nc2o1`, for which the IC50 is > 50 µM (inactive).
To `O=C1CC(SCc2nc3ccccc3[nH]2)C(=O)N1c1ccc(F)cc1` (stereo unspecified) belongs > 50 µM (inactive).
`CCOC(=O)C1=C(N)OC2=C(C(=O)CCC2)C12C(=O)N(CC(N)=O)c1ccccc12` (stereo unspecified): the IC50 is > 50 µM (inactive).
Take `CCC(=O)N1c2ccccc2NC2=C(C(=O)CCC2)C1c1ccc(N(C)C)cc1` (stereo unspecified): the IC50 was > 50 µM (inactive).
Turning to `CC1=C(C(N)=O)C(c2ccccn2)n2nc(-c3ccccc3Cl)nc2N1` (stereo unspecified), the IC50 was > 50 µM (inactive).
For `CCC/S(C)=N/S(=O)(=O)c1ccc(C)cc1` (stereo unspecified) the value was > 50 µM (inactive).
With `N#CC1=C(N)NC(SCc2ccccc2)=C(C#N)C12CCCC2`, the IC50 is > 50 µM (inactive).
In the case of `Cc1ccc(NC2c3ncccc3C(=O)N2c2ccccc2C)cc1C` (stereo unspecified), the concentration for half-maximal inhibition (IC50) is 5.53 µM.
To `CCOC(=O)C1(C)C=C(Nc2cccc(OC)c2)C(=O)N1c1ccccc1` (stereo unspecified) belongs > 50 µM (inactive); to `Cc1cc(/C(O)=C2\C(=O)C(=O)N(CCN(C)C)C2c2ccncc2)ccc1OCc1ccccc1` (stereo unspecified), > 50 µM (inactive).
To `COc1ccc(OC)c(/C=N/Nc2cc(C)nc(N3CCOCC3)n2)c1` belongs > 50 µM (inactive); to `Cc1cc(N/N=C/c2ccc(O)cc2)nc(NS(=O)(=O)c2ccccc2)n1`, > 50 µM (inactive).
To `CC(=O)C1=C(C)NC(C)=C(C(C)=O)C1c1cccs1` belongs > 50 µM (inactive); to `COc1ccc(N2C(N)=C(C#N)C(c3cccnc3)C3=C2CC(C)(C)CC3=O)cc1` (stereo unspecified), > 50 µM (inactive); to `Oc1cccc(NC(=S)N=Nc2c(O)[nH]c3ccccc23)c1`, > 50 µM (inactive).
As for `COC(=O)c1[nH]c(C)c(/C(O)=C2\C(=O)C(=O)N(CCN(C)C)C2c2cccc(OC)c2OC)c1C` (stereo unspecified), the IC50 was > 50 µM (inactive).
As for `COc1ccc2c(c1)C(c1ccc([N+](=O)[O-])cc1)=NNC(c1ccco1)=N2`, the IC50 is > 50 µM (inactive).
For the compound `CC1(C)CC(=O)CC(=NCC(=O)O)C1`, the IC50 was > 50 µM (inactive).
Consider `COC(=O)c1cc(N2C(=O)C3C(C2=O)C2(C)C=CC3(C)O2)ccc1Cl` (stereo unspecified), for which the IC50 is > 50 µM (inactive).
For `O=C(N/N=C/c1cc([N+](=O)[O-])ccc1O)c1cccc2cc[nH]c12` the value was > 50 µM (inactive).
For `COc1ccc2cc(C3C(C#N)=C(N)OC(C)=C3C(C)=O)c(Cl)nc2c1` (stereo unspecified) the value was > 50 µM (inactive).
`CC1(C)CC(=O)C(C=Nc2ccccc2Sc2ccccc2)=C(O)C1`: the IC50 was > 50 µM (inactive).
For `Oc1ccc2ccccc2c1C=NC12CN3CCN(CN(C3)C1)C2` the value was > 50 µM (inactive); for `COc1cccc(N2C(=O)CC(NNc3nc4ccccc4s3)C2=O)c1` (stereo unspecified), > 50 µM (inactive).
For `COC(=O)c1sc(N2C(=O)C(O)=C(C(=O)c3ccc(C)o3)C2c2ccc(F)cc2)nc1C` (stereo unspecified) the value was > 50 µM (inactive); for `CC(C)(CO)N=Cc1c(O)[nH]c2ccccc12`, > 50 µM (inactive).
To `COc1ccc(-c2[nH]nc3c2C(c2ccsc2)C(C#N)=C(N)O3)cc1` (stereo unspecified) belongs > 50 µM (inactive); to `Cc1ccc(-c2[nH]nc3c2C(c2ccoc2)C(C#N)=C(N)O3)cc1C` (stereo unspecified), > 50 µM (inactive).
Turning to `CCOC(=O)C1CCCN(C2CC(=O)N(c3ccc(C)cc3)C2=O)C1` (stereo unspecified), the IC50 is > 50 µM (inactive).
To `O=c1c(/C=N/O)c(Nc2ccccc2)nc2ccccn12` belongs > 50 µM (inactive); to `Cc1ccc(Cn2c(O)c(N=NC(=S)Nc3ccccc3F)c3cc(S(=O)(=O)N4CCOCC4)ccc32)cc1`, > 50 µM (inactive); to `CCN(CC)C(=O)c1sc(NC(=O)Cc2ccccc2)c(C#N)c1C`, > 50 µM (inactive).
Regarding `COc1cccc(/C(O)=C2/C(=O)C(=O)N(CCCN3CCOCC3)C2c2ccncc2)c1` (stereo unspecified), the IC50 is 46.3 µM.
With `COc1ccc(Oc2ccccc2/C=N/O)cc1`, the IC50 was > 50 µM (inactive).
To `Cc1c(-c2cccs2)[n+](=O)c2c(n1[O-])CCC2` belongs > 50 µM (inactive); to `CCCC(C)C1C(C#N)=C(N)Oc2c1c(=O)oc1ccccc21` (stereo unspecified), > 50 µM (inactive).
`O=c1[nH]c(=O)n(Cc2ccco2)c(O)c1C=NCc1ccco1`: the IC50 is > 50 µM (inactive).
Take `N#Cc1c(N)nc2c3c(sc(=N)c2c1N)NC(=O)CC3c1c(F)cccc1Cl` (stereo unspecified): the IC50 is > 50 µM (inactive).
As to `COc1ccc(N2C(=O)CC(Nc3cccc([N+](=O)[O-])c3)C2=O)cc1` (stereo unspecified), the IC50 is > 50 µM (inactive).
To `COC(/C=C/Nc1ccc(Br)cc1)=C(C#N)C#N` belongs > 50 µM (inactive); to `CCOC(=O)C1=C(CC)Nc2ccccc2N=C1NC(=O)CCN1C(=O)C2CCCCC2C1=O` (stereo unspecified), > 50 µM (inactive).

Broadly, the IC50 is the concentration at which inhibition is half-maximal.
